Source: patent publication US20240182475A1 (Université de Lausanne, priority 2021, published 2024)

Experiments:
MOVAS cells = assay: MOVAS cell calcification assay (Alizarin red); assay type: cell-based, mouse; details: for Mineralization (Alizarin red): 50 uM
Procedure: A) Alizarin red staining of MOVAS cells stimulated with sCPP for 24 h in DMEM+10% FBS and treated or not with 50 uM of compounds. […] Statistical analysis was determined using one-way ANOVA with ***p<0.001. C) Percentage of cytotoxicity (LDH %) in MOVAS treated or not with compounds for 24 h. D) MOVAS cells were seeded onto half-area 96-well plate and incubated overnight. Then C5 or C6 at 50 uM or vehicle (DMSO), L-cysteine at 10 mM, PLP at 5 uM and the H2S sensitive fluorescent probe AzMC at 10 μM were added. The fluorescence was immediately measured in kinetic mode for 2 h at 37° C. with SpectraMax M5 reader, with excitation and emission wavelengths of 365 nm and 450 nm, respectively.
A) Alizarin red staining of Movas cells stimulated with sCPP for 24 h in DMEM+10% FBS and treated or not with 50 uM of Z20. […] C) Percentage of cytotoxicity (LDH %) in murine chondrocytes treated or not with Z20 for 24 h. Statistical analysis was determined using one-way ANOVA with ***p<0.001.
Alizarin red staining of MOVAS cells stimulated with sCPP for 24 h in DMEM+10% FBS and treated or not with different concentrations of compounds (A: C6) and (B: Z20). The graphs show Alizarin red absorbance at 570-630 nm. Statistical analysis was determined using one-way ANOVA with *p<0.05, **p<0.01, ***p<0.001.
CPP were generated by preparing 20 ml DMEM containing 10% FBS, 1 mmol/L CaCl2, 3.5 mmol/L inorganic phosphate (1.36 mmol/L NaH2PO4 and 2.14 mmol/L Na2HPO4) (Aghagolzadeh et al. Atherosclerosis, 2016). After 7 days incubation at 37° C., the suspension was centrifuged at 25000 g for 2 h at 4° C., and the pellet containing CPP was resuspended in 1 ml DMEM and stored at −20° C. until further use.
Mouse vascular smooth muscle cell line (MOVAS) cells were cultured according to the manufacturer's guidelines in DMEM culture medium supplemented with 10% FBS. Cells were cultured at 37° C. in a humidified atmosphere with 5% CO2. All cell culture experiments in 96-well plates were performed in triplicates and were repeated independently two times.
For calcification experiments, cells were seeded in 96-well plates at a density of 50,000 cells/well and left to attach for 18 h. Calcification of cell monolayers was induced by CPP (equivalent to 50 μg Ca/mL) for 24 h at 37° C., 5% CO2 in presence of various concentrations of compounds (all in final 0.1% DMSO), or of 0.1% DMSO as a control, to reach a final volume of 200 μl/well. Calcium deposition was assessed by 0.5% w/v Alizarin Red staining (pH 4.2). Briefly, after PBS washing, methanol fixation for 10 min at 4° C., and milli-Q water washing, cells were incubated for 60 min with 200 μL Alizarin Red solution and then washed four times with milli-Q water. Quantification was performed after crystal dissolution with cetylpyridinium chloride (10%) for 18 h. The absorbance was measured at 570 and 630 nm using the Spectramax M5e reader (Molecular Devices). The background (alizarin red staining obtained with cells in the absence of CPP) was subtracted from all values.

recombinant human CSE = recombinant human CSE (Homo sapiens, UniProt P32929); assay: CSE activity (AzMC probe assay), H2S production by recombinant human CSE; assay type: biochemical; details: for CSE production of H2S (AzMC fluorescence, kinetic 2 h): 50 uM, 2 μg rCSE, 10 mM L-cysteine, 5 uM PLP, Tris-HCl pH 8, vs vehicle
Chain of recombinant human CSE (P32929 whole entry): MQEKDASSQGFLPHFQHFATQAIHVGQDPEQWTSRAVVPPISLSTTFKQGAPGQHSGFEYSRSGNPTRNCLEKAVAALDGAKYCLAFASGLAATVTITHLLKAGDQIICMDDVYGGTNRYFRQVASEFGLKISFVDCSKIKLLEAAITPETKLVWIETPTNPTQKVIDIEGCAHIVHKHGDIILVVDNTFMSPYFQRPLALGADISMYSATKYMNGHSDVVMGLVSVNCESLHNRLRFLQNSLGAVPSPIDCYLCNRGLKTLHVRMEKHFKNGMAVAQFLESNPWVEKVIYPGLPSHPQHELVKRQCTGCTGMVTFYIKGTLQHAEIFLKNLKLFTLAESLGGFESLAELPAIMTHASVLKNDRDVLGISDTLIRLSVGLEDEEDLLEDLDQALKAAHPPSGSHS
Procedure: The activity of recombinant human CSE (rCSE) was tested in the presence of C5, compound 8 (50 uM), Z20 compound 13 (50 uM) or vehicle (DMSO). Briefly, compounds were added in reaction buffer (50 mM Tris-HCl, pH 8) containing 2 μg of rCSE, 10 mM CSE substrate L-cysteine, 5 uM pyridoxal 5′-phosphate (PLP). After addition of 10 μM of the H2S sensitive fluorescent probe 7-azido-4-methylcoumarin (AzMC) in a total volume of 100 μl, fluorescence was immediately measured in kinetic mode for 2 h at 37° C. with SpectraMax M5 reader, with excitation and emission wavelengths of 365 nm and 450 nm, respectively. Statistical analysis was determined using simple linear regression with p<0.0001 for C5 vs. vehicle and p<0.0002 for Z20 vs. vehicle.
Recombinant human CSE (1 μg/well) was incubated with various concentrations of compounds (all in final 0.1% DMSO), or with 0.1% DMSO as a control, in 10 mM sodium phosphate buffer pH 8.2. Next, 10 mM L-cysteine and 1 mM PLP and 10 μM of the probe AzMC were then added to reach 100 μL total volume. Fluorescence was measured for 3 h at 37° C. with excitation and emission wavelengths of 365 nm and 450 nm, respectively, in a 96-well half area black plate with transparent bottom.
Dose-response curve of each compound was performed, using triplicate wells for each tested doses. The background (10 mM sodium phosphate buffer with L-cysteine, PLP and AzMC) was subtracted from all values. Each mean value was converted to percent activity (0% defined as the smallest mean in each data set, 100% defined as the highest mean in each data set). The data were normalized using the four parameter logistic model (4PL) equation to calculate EC50 using GraphPad Prism.

[1] = tested on: primary human chondrocytes; assay: Primary human chondrocyte calcification (Alizarin red); assay type: cell-based; details: secondary CPP 24 h, 50 uM
Procedure: (a) WT and Cse-deficient chondrocytes were incubated with a CSE activator (SU004, 50 μM) previously identified by high-through put screen, or with the equivalent volume of DMSO (0.1%) for 24 hours in calcification medium. STS 25 mM was used as a positive control for calcification inhibition. Calcium-containing crystals were stained with Alizarin red and quantified. (b) Cytotoxicity was assessed by LDH measurement and expressed as % over 100% cytotoxicity. (c) IL-6 secretion was measured by ELISA in supernatant of WT chondrocytes incubated with SU004 50 μM or STS 25 mM for 24 hours in calcification medium. (d) Primary human chondrocytes from 3 OA patients (P1, P2, P3) were incubated with SU004 50 μM, or with the equivalent volume of DMSO (0.1%) for 24 hours in calcification medium. Calcium-containing crystals were stained with Alizarin red and quantified. (e) Cytotoxicity was assessed by LDH measurement and expressed as % over 100% cytotoxicity. (f) IL-6 secretion was measured by ELISA in supernatant of human chondrocytes incubated for 24 hours with SU004 50 μM in calcification medium. *p<0.05, ** p<0.01, ****p<0.0001.
1. Alizarin red staining of primary human chondrocytes stimulated with secondary CPP for 24 h in DMEM+10% FBS and treated or not with 50 uM of compounds.
Chondrocytes were isolated from cartilage pieces incubated overnight in the digestion enzyme Liberase™ (Roche). […]

Structure (SMILES): Cn1ncc2c(Nc3cnn(CC4CCCO4)c3)ncnc21 (stereo not drawn) [Compound 8, N-{1-methyl-1H-pyrazolo[3,4-d]pyrimidin-4-yl}-1-[(oxolan-2-yl)methyl]-1H-pyrazol-4-amine]
- inhibition at 2 µM (MOVAS cells; Mus musculus, MOVAS, at 2 uM, read-out: Calcification assay Max calcification inhibition (%) at the indicated dose of compound): 38%
- Mineralization (Alizarin red) (MOVAS cells; sCPP 24 h): inhibit murine vascular smooth muscle cells (MOVAS cells) mineralization
- CSE production of H2S (AzMC fluorescence, kinetic 2 h) (recombinant human CSE): augments CSE production of H2S
- EC50 (recombinant human CSE; EC50 calculated by the four-parameter logistic model): 68.6 nM
- Mineralization (Alizarin red) [1]: inhibit primary human chondrocyte mineralization

Structure (SMILES): CCn1cnc2c(Nc3cnn(CC4CCCO4)c3)ncnc21 (stereo not drawn) [Compound 13]
- Mineralization (Alizarin red) (MOVAS cells; sCPP 24 h): inhibits MOVAS cells mineralization
- Mineralization (Alizarin red absorbance 570-630 nm) (MOVAS cells; sCPP 24 h, different concentrations): Dose-dependent effect
- CSE production of H2S (AzMC fluorescence, kinetic 2 h) (recombinant human CSE): augments CSE production of H2S
- Mineralization (Alizarin red) [1]: inhibit primary human chondrocyte mineralization
